The values below are quoted from earlier work in JP2011132186A, “ホルモン不応性前立腺癌治療法及び治療効果予測方法” (University of Tokushima NUC, priority 2009, dated 2011).

The subject of this data set is hormone-refractory prostate cancer [ホルモン不応性前立腺癌]. Particulars: large phase III comparative trial in Europe and USA.

For `O=C1c2c(O)ccc(O)c2C(=O)c2c(NCCNCCO)ccc(NCCNCCO)c21` [ミトキサントロン], the “median survival time (OS)” value is reported as 16.5 months. Regarding `CC(=O)O[C@@]12CO[C@@H]1C[C@H](O)[C@@]1(C)C(=O)[C@H](O)C3=C(C)[C@@H](OC(=O)[C@H](O)[C@@H](NC(=O)OC(C)(C)C)c4ccccc4)C[C@@](O)([C@@H](OC(=O)c4ccccc4)[C@H]21)C3(C)C` [ドセタキセル], the “median survival time (OS)” value is given as 18.9 months.
